Measurements published in publication PMC4124873, “Photo-antagonism of the GABAA receptor” (Nature Communications, 2014).
Where “and” joins values, the source holds several entries; their conditions need not be identical. Equal entries are not always repeated. Where two headings read alike, the source gives them in different places.

Tests used:
[1] = target: T1, α1β2γ2 (wt) GABAA receptor (Mus musculus, UniProt P62812+P63137); experiment: cell-based
[2] = target: α1β2E155Qγ2 GABAA receptor (Mus musculus, UniProt P62812+P63137, E179Q); experiment: cell-based
[3] = target: T2, α1R84Qβ2γ2 GABAA receptor (Mus musculus, UniProt P62812+P63137, R111Q); experiment: cell-based; details: HEK293, read-out: maximum GABA current after UV in the presence of GZ-B1, % of control
α1β2γ2 GABAA receptor [4] = target: T3, α1β2γ2 GABAA receptor (Mus musculus, UniProt P62812+P63137); experiment: cell-based; details: HEK293, read-out: maximum GABA current after UV in the presence of GZ-B1, % of control
α3β3γ2 GABAA receptor = target: T4, α3β3γ2 GABAA receptor (Mus musculus, UniProt P26049+P63080); experiment: GZ-B1 inhibition of GABA EC50 responses, receptor subtype selectivity in HEK cells; format: cell-based, murine; details: α3β3γ2, GABA EC50 response, ANOVA Dunnett
T4 construct: expressed in transfected cells; host or cells: HEK cells
From the text: (§1) […]; pH 7.4 (adjusted with 1 M NaOH).

α4β3δ GABAA receptor = target: T5, α4β3δ GABAA receptor (Mus musculus, UniProt P63080+Q9D6F4); experiment: as above; format: cell-based, murine; details: GABA EC50 response, ANOVA Dunnett
T5 construct: expressed in transfected cells; host or cells: HEK cells
From the text: as §1

[5] = tested on: synaptic GABAA receptors of cerebellar granule cells; experiment: sIPSCs in cultured cerebellar granule cells after UV photoactivation; details: 10 μM GZ-B1, one UV cycle
[6] = target: T6, α1R119Qβ2E155Q+R207Qγ2 GABAA receptor (Mus musculus, UniProt P62812+P63137, E179Q/R146Q/R231Q); experiment: cell-based
[7] = target: T7, α1β2R207Qγ2 GABAA receptor (Mus musculus, UniProt P62812+P63137, R231Q); experiment: cell-based
[8] = target: T8, α1R84Qβ2R207Qγ2 GABAA receptor (Mus musculus, UniProt P62812+P63137, R111Q/R231Q); details: α1R84Qβ2R207Qγ2 double mutant
[9] = target: α1β2D162N,D163Nγ2 GABAA receptor (Mus musculus, UniProt P62812+P63137, D186N/D187N); experiment: cell-based; details: HEK293, read-out: maximum GABA current after UV in the presence of GZ-B1, % of control
[10] = target: T6, α1R119Qβ2E155Q+R207Qγ2 GABAA receptor
[11] = target: T9, α1R84+119Qβ2D162+163Nγ2 GABAA receptor (Mus musculus, UniProt P62812+P63137, D186N/D187N/R111Q/R146Q); experiment: cell-based; details: HEK293, read-out: maximum GABA current after UV in the presence of GZ-B1, % of control
[12] = target: T10, α1R119Qβ2R207Qγ2 GABAA receptor (Mus musculus, UniProt P62812+P63137, R146Q/R231Q)
[13] = target: T11, α1β2E155Q+R207Qγ2 GABAA receptor (Mus musculus, UniProt P62812+P63137, E179Q/R231Q); experiment: cell-based
α1β2γ2 GABAA receptor [14] = target: T3, α1β2γ2 GABAA receptor; details: for irreversible reduction/block of GABA current post-UV: one cycle of UV
[15] = target: T12, α1R119Qβ2γ2 GABAA receptor (Mus musculus, UniProt P62812+P63137, R146Q); experiment: cell-based; details: HEK293, read-out: maximum GABA current after UV in the presence of GZ-B1, % of control
[16] = target: T11, α1β2E155Q+R207Qγ2 GABAA receptor
[17] = target: T8, α1R84Qβ2R207Qγ2 GABAA receptor; experiment: cell-based
[18] = target: T2, α1R84Qβ2γ2 GABAA receptor; experiment: cell-based
[19] = target: α1β2D162+163Nγ2 GABAA receptor (Mus musculus, UniProt P62812+P63137, D186N/D187N); experiment: cell-based
[20] = target: T1, α1β2γ2 (wt) GABAA receptor; details: for Max inhibition: inhibition of GABA EC50 response, wt
[21] = target: T9, α1R84+119Qβ2D162+163Nγ2 GABAA receptor; experiment: cell-based
[22] = target: T12, α1R119Qβ2γ2 GABAA receptor; experiment: cell-based
[23] = target: T2, α1R84Qβ2γ2 GABAA receptor
[24] = target: T12, α1R119Qβ2γ2 GABAA receptor; details: for Max inhibition: α1R119Qβ2γ2; for potency increase compared with wild type: α1R119Qβ2γ2 vs wild type
[25] = target: α1R119Qβ2E155Qγ2 GABAA receptor (Mus musculus, UniProt P62812+P63137, E179Q/R146Q); experiment: cell-based
[26] = target: T10, α1R119Qβ2R207Qγ2 GABAA receptor; experiment: cell-based
α1β2γ2 GABAA receptor [27] = target: T3, α1β2γ2 GABAA receptor; experiment: Schild analysis of competitive antagonism in HEK cells
[28] = target: T7, α1β2R207Qγ2 GABAA receptor
[29] = target: T1, α1β2γ2 (wt) GABAA receptor; parameters: expressed in transfected cells; host or cells: HEK cells; details: α1β2γ2, GABA EC50 response; cited from earlier work
[30] = IC50, inhibition of GABA EC50 response, α1β2R207Qγ2
[31] = 10 μM GABA, 10 μM antagonist, one cycle of 10 UV flashes, 3–5 min wash
[32] = IC50, inhibition of GABA EC50 response, α1R119Qβ2γ2
[33] = IC50, α1R119Qβ2γ2, as printed in text

| Structure (SMILES) | IC50 [1] | IC50 [2] | IC50 [6] | IC50 [7, 30] | Max inhibition [10] | Max inhibition [12] | IC50 [13] | GABA-induced current post-UV, normalized to control (α1β2γ2 GABAA receptor [14]; [31]) | irreversible reduction/block of GABA current post-UV (α1β2γ2 GABAA receptor [14]; 10 μM antagonist) | Max inhibition [16] | Max inhibition [20] | IC50 [22, 32] | IC50 [22, 33] | Max inhibition [24] | potency increase compared with wild type [24] | IC50 [25] | IC50 [26] | Kb (α1β2γ2 GABAA receptor [27]) | Max inhibition [28] | further results |
| --- | --- | --- | --- | --- | --- | --- | --- | --- | --- | --- | --- | --- | --- | --- | --- | --- | --- | --- | --- | --- |
| N=c1ccc(-c2ccc(OCc3ccc(C(=O)c4ccccc4)cc3)cc2)nn1CCCC(=O)O [GZ-B1] | 155 nM | > 100 µM | 426 nM | 487 nM | 72 ± 4% | 75 ± 2% | 470 nM | 50.8±1.8% | ~ 50% | 100% | 100% | 71.5 nM | 72 nM | 100% | ~ 2 fold | > 100 µM | 418 nM | 153 nM | 83 ± 3% | remaining activity at 100 µM [3]: 84 ± 4.9%; remaining activity at 10 µM (α1β2γ2 GABAA receptor [4]): 62 ± 4.2%; GZ-B1 potency (IC50) compared with α1β3γ2 (α3β3γ2 GABAA receptor): significantly lower potencies; GZ-B1 potency (IC50) compared with α1β3γ2 (α4β3δ GABAA receptor): significantly lower potencies; reduction in synaptic current (sIPSC) amplitude [5]: ≤ 90%; IC50 ([7]; IC50, α1β2R207Qγ2, as printed in text): 487 nM; reduction (loss) of GZ-B1 potency [8]: 1,000 fold and > 1,000 fold; remaining activity at 100 µM [9]: 71 ± 2.6%; remaining activity at 100 µM [11]: 97 ± 3.4%; remaining activity at 10 µM [15]: 73 ± 2.6%; IC50 [17]: 182 µM; IC50 ([18]; IC50, inhibition of GABA EC50 response): 4.22 µM; IC50 ([18]; pIC50, inhibition of GABA EC50 response): 4.23 µM; IC50 [19]: 13.5 µM; IC50 [21]: 258 µM; Max inhibition [23]: 100% |
| N=c1ccc(-c2ccc(OCc3ccc(C4(C(F)(F)F)N=N4)cc3)cc2)nn1CCCC(=O)O [GZ-D1] | – | – | – | – | – | – | – | 79.0±4.5% | ~ 20% | – | – | – | – | – | – | – | – | 132 nM | – | – |
| N=c1ccc(-c2ccc(C(=O)c3ccccc3)cc2)nn1CCCC(=O)O [GZ-B2] | – | – | – | – | – | – | – | 98.3±4.2% | – | – | – | – | – | – | – | – | – | 318 nM | – | relative potency compared with gabazine ([20]; α1β2γ2, GABA EC50 response): equipotent |
| N=c1ccc(-c2ccc(OCc3ccccc3)cc2)nn1CCCC(=O)O [GZ-i1] | – | – | – | – | – | – | – | – | – | – | – | – | – | – | – | – | – | 13 nM | – | increase in potency over gabazine [29]: more than 30 fold; increase in affinity (Ki) over gabazine (α1β2γ2 GABAA receptor [27]; Schild analysis): 20 fold |
| COc1ccc(-c2ccc(=N)n(CCCC(=O)O)n2)cc1 [gabazine, reference compound] | 349 nM | > 100 µM | 2260 nM | 1710 nM | 94 ± 1% | 100% | 1380 nM | 101.6±3.3% | – | 100% | 100% | 188 nM | 188 nM | 100% | ~ 2 fold | > 100 µM | 3750 nM | 300 nM | 100% | – |
| [N-]=[N+]=Nc1ccc(COc2ccc(-c3ccc(=N)n(CCCC(=O)O)n3)cc2)cc1 [GZ-A1] | – | – | – | – | – | – | – | – | ~ 30% | – | – | – | – | – | – | – | – | 44 nM | – | GABA-induced current post-UV, normalized to control (α1β2γ2 GABAA receptor [14]): 71.3±6.8% |
